ChEMBL document CHEMBL4825722, “Discovery of Potent Selective Nonzinc Binding Autotaxin Inhibitor BIO-32546” (ACS Med Chem Lett, 2021)

Tests used:
hERG (KCNH2) [1] = target: T1, hERG (KCNH2) (Homo sapiens, UniProt Q12809); assay: Inhibition of human ERG at 1 uM by automated patch-clamp assay relative to control
Autotaxin = Autotaxin (Homo sapiens, UniProt Q13822); assay: Inhibition of human ATX assessed as reduction in LPA formation using FS-3 as substrate preincubated for 30 mins followed by substrate addition and measured after 2 hrs by FRET assay
hERG (KCNH2) [2] = target: T1, hERG (KCNH2); assay: Inhibition of human ERG at 10 uM by automated patch-clamp assay relative to control
[3] = Drug concentration in rat brain at 10 mg/kg, po after 4 hrs; assay type: ADME, organism-based; settings: read-out: Ct
[4] = Protein binding in human plasma assessed as unbound fraction at 2 uM by rapid equilibrium dialysis method; assay type: ADME, cell-free
[5] = Clearance in rat at 10 mg/kg, po; assay type: ADME, organism-based; settings: in vivo
[6] = Protein binding in rat plasma assessed as unbound fraction; assay type: ADME, cell-free
[7] = Total brain to plasma concentration ratio in rat at 10 mg/kg, po measured after 4 hrs; assay type: ADME, organism-based; settings: brain and plasma, read-out: BPR

T1 sequence (Q12809 whole entry): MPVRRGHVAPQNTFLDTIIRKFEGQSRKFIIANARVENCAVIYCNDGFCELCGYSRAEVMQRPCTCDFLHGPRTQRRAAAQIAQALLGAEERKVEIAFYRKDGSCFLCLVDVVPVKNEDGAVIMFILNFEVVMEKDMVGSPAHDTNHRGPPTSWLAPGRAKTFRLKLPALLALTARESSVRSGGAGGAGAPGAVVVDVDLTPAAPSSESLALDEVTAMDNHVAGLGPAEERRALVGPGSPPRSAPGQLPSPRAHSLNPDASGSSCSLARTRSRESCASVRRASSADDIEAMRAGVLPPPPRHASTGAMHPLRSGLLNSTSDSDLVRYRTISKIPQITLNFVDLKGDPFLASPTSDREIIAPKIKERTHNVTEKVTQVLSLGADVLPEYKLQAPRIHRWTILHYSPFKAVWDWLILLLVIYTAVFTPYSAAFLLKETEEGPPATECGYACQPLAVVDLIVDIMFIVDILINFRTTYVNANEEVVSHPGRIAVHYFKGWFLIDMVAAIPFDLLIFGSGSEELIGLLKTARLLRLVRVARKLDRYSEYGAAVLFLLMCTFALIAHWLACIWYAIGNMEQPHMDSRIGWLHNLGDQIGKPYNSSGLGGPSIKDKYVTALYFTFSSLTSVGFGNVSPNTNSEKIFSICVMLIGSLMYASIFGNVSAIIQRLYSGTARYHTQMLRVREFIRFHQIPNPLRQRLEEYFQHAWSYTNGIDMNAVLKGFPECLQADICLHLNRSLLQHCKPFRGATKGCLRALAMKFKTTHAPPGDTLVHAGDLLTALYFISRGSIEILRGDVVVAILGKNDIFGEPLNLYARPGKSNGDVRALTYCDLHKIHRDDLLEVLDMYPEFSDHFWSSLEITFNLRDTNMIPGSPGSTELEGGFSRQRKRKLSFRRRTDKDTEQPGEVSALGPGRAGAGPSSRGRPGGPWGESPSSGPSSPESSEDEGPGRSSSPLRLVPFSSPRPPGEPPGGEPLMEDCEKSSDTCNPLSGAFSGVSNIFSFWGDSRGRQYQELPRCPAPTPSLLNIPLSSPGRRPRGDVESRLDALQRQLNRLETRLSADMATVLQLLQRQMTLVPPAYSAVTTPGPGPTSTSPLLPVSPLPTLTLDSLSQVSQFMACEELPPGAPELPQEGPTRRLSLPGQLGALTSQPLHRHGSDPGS

| SMILES | inhibition at 1 µM (hERG (KCNH2) [1]) [%] | IC50 (Autotaxin) [nM] | inhibition at 10 µM (hERG (KCNH2) [2]) [%] | also measured |
| --- | --- | --- | --- | --- |
| O=C(O)C1CCN(Cc2ccc3c(C(F)(F)F)c(O[C@H]4CC[C@@H](C(F)(F)F)CC4)ccc3c2)CC1 | 6.6 | 370 | 86.8 | – |
| O=C(O)CCCNC(=O)c1ccc2c(C(F)(F)F)c(O[C@H]3CC[C@@H](C(F)(F)F)CC3)ccc2c1 | – | 3700 | – | – |
| C[C@H]1CC[C@@H](Oc2ccc3ccc(CN4C5CCC4CC(C(=O)O)C5)cc3c2C(F)(F)F)CC1 (some centres not stated) | 6 | 100 | 65 | – |
| C[C@H](c1ccc2ccc(O[C@H]3CC[C@@H](C)CC3)c(C(F)(F)F)c2c1)N1C2CCCC1CC(C(=O)O)C2 (some centres not stated) | 8.4 | 330 | 29.6 | – |
| C[C@H]1CC[C@@H](Oc2ccc3ccc(CN4C5CCCC4CC(C(=O)O)C5)cc3c2C(F)(F)F)CC1 (some centres not stated) | 12 | 8.2 | 84 | – |
| O=C(NCCCP(=O)(O)O)c1ccc2c(C(F)(F)F)c(O[C@H]3CC[C@@H](C(F)(F)F)CC3)ccc2c1 | – | 28 | – | – |
| C[C@H]1CC[C@@H](Oc2ccc3cc(CN4C5CCCC4CC(C(=O)O)C5)ccc3c2C(F)(F)F)CC1 (some centres not stated) | 1.6 | 38 | 52.7 | – |
| C[C@@H](c1ccc2ccc(O[C@H]3CC[C@@H](C)CC3)c(C(F)(F)F)c2c1)N1C2CCCC1CC(C(=O)O)C2 (some centres not stated) | 4.6 | 3.6 | 24.4 | – |
| CCCCCCCCCCCCCC(=O)OC[C@@H](O)COP(=O)(O)O | – | 110 | – | – |
| C[C@@H](c1ccc2ccc(O[C@H]3CC[C@@H](C)CC3)c(C(F)(F)F)c2c1)N1C2CCC1CC(C(=O)O)C2 (some centres not stated) | – | – | – | concentration at 4 h [3]: 103 ng/mL; Fu [4]: 0.18%; CL/F [5]: 94 mL/min/kg; Fu [6]: 0.22%; Kp at 4 h [7]: 0.8 |
| O=C(O)CCCNCc1ccc2c(C(F)(F)F)c(O[C@H]3CC[C@@H](C(F)(F)F)CC3)ccc2c1 | – | 1300 | – | – |
